Measured values taken from PubChem BioAssay (NCI).
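Step 1: Grow cells in 96-well plates. Step 2: Expose to compound for 48 hours at 5 concentrations. Step 3: Interpolate endpoints linearly; if unreached, use highest concentration. At the TGI there is no net growth.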

Columns and labels:
Test in all cases: NCI-60 cell line screen, 48 h
[1] = test system: OVCAR-8 ovarian
[2] = test system: MDA-N
[3] = test system: OVCAR-5 ovarian
[4] = test system: NCI-H460 lung
[5] = test system: RPMI-8226 leukemia
[6] = test system: HCT-116 colon
[7] = test system: HS 578T breast
[8] = test system: HCT-15 colon
[9] = test system: SN12C renal
[10] = test system: SF-268 CNS
[11] = test system: HT29 colon
[12] = test system: MDA-MB-231 breast
[13] = test system: CCRF-CEM leukemia
[14] = test system: NCI-H226 lung
[15] = test system: NCI-H522 lung
[16] = test system: UACC-257 melanoma
[17] = test system: SK-MEL-28 melanoma
[18] = test system: BT-549 breast
[19] = test system: RXF 393 renal
[20] = test system: K-562 leukemia
[21] = test system: U251 CNS
[22] = test system: SK-MEL-2 melanoma
[23] = test system: MOLT-4 leukemia
[24] = test system: ACHN renal
[25] = test system: SF-539 CNS
[26] = test system: OVCAR-3 ovarian
[27] = test system: SW-620 colon
[28] = test system: TK-10 renal
[29] = test system: SNB-19 CNS
[30] = test system: HOP-62 NSCLC
[31] = test system: HL-60(TB) leukemia
[32] = test system: COLO 205 colon
[33] = test system: M14 melanoma
[34] = test system: DU-145 prostate
[35] = test system: IGROV1 ovarian
[36] = test system: NCI-H23 lung
[37] = test system: KM12 colon
[38] = test system: SNB-75 CNS
[39] = test system: SF-295 CNS
[40] = test system: A549 NSCLC
[41] = test system: HCC-2998 colon
[42] = test system: MDA-MB-435
[43] = test system: MCF7 breast
[44] = test system: PC-3 prostate
[45] = test system: SK-OV-3 ovarian
[46] = test system: EKVX NSCLC
[47] = test system: A498 renal
[48] = test system: OVCAR-4 ovarian
[49] = test system: 786-0 renal
[50] = test system: T-47D breast
[51] = test system: MALME-3M melanoma
[52] = test system: NCI/ADR-RES ovarian
[53] = test system: LOX IMVI melanoma
[54] = test system: CAKI-1 renal
[55] = test system: UACC-62 melanoma
[56] = test system: SK-MEL-5 melanoma
[57] = test system: UO-31 renal
[58] = test system: HOP-92 NSCLC

Measured: TGI

CCO/C(O)=C(/C(=N)N1CCOCC1)C(=O)Nc1ccc(Cl)cc1
> 100 µM: [1] | [2] | [3] | [4] | [5] | [6] | [7] | [8] | [9] | [10] | [11] | [12] | [13] | [14] | [15] | [16] | [17] | [18] | [19] | [20] | [21] | [22] | [23] | [24] | [25] | [26] | [27] | [28] | [29] | [30] | [31] | [32] | [33] | [34] | [35] | [36] | [37] | [38] | [39] | [40] | [41] | [42] | [43] | [44] | [45] | [46] | [47] | [48] | [49] | [50] | [51] | [52] | [53] | [54] | [55]

CCc1n[nH]c(=O)n1/N=C/c1ccc(/C=N/n2c(CC)n[nH]c2=O)cc1
> 100 µM: [1] | [2] | [3] | [4] | [5] | [6] | [7] | [8] | [9] | [10] | [11] | [12] | [13] | [14] | [15] | [16] | [56] | [17] | [18] | [19] | [20] | [21] | [22] | [23] | [24] | [26] | [27] | [28] | [29] | [30] | [31] | [32] | [33] | [57] | [34] | [35] | [36] | [37] | [39] | [40] | [42] | [43] | [44] | [46] | [47] | [48] | [49] | [50] | [51] | [52] | [53] | [54] | [55]

Nc1cccc2nnccc12
> 100 µM: [1] | [2] | [3] | [4] | [5] | [6] | [7] | [8] | [9] | [10] | [11] | [12] | [13] | [14] | [15] | [16] | [56] | [18] | [19] | [21] | [22] | [24] | [25] | [27] | [28] | [29] | [31] | [32] | [33] | [57] | [34] | [35] | [36] | [37] | [38] | [39] | [40] | [42] | [43] | [44] | [45] | [46] | [58] | [49] | [50] | [51] | [52] | [54] | [55]
